# Measured values: US11208443B2, “NAF-1 derived peptides and uses thereof” (YISSUM RESEARCH DEVELOPMENT COMPANY OF THE HEBREW …, priority 2017, dated 2021)
# Read-outs that look alike come from different tables or passages of the source. Non-standard residues stand in square brackets, D forms with d. Residues, ends and D or L forms follow the SMILES beside them. No end group written: not given here. PEG8 = NCCOCCOCCOCCOCCOCCOCCOCCOCCC(=O)O
# Key:
# chymotrypsin = assay: Stability against protease cleavage, HPLC; type: in vitro ADME
# Method: Stability of the D-PEP, and 3D-PEP, analogs, and of PEG-N-3D-PEP and PEG-C-3D-PEP conjugates against protease cleavage (chymotrypsin and trypsin) was tested and compared to stability of the native peptide having SEQ ID NO: 1. To peptides' stocks of 430 μl in concentration of 450 μM were added 0.001 mg/ml protease (Trypsin or Chymotrypsin) and incubated in room temperature (22° C.). Samples of 40 μl were taken before adding the protease and after every 15 min in the first hour, and after 2 […] and 24 h. To stop the proteolysis samples were added 7 μl of 2% TFA in TDW. The samples were added 60 μl TDW and were analyzed using analytical HPLC.
# MCF-10A cells [1] = system: MCF-10A cells
# Method: The ability of the peptide having the sequence SEQ ID NO: 1 to penetrate into the cells and its effect on cells' viability was tested as following. Green fluorescein was conjugated to the peptide having SEQ ID NO: 1 (the labeled peptide is referred as PEP-FL). Then, the fluorescent peptide was incubated with normal, non-tumor epithelial cell line (MCF-10A) and malignant (MDA-MB-231) breast epithelial cells. The mitochondria of the cells were labeled red with RPA and the cells' nuclei were labeled with Hoechst 33342 (blue dye).
# [2] = Cell viability of malignant cells (Examples 1, 6, 10); type: cell-based, human
# Description: (§1) However, substitution of several amino acids to Ala drastically diminished the toxicity of these analogs.
# MDA-MB-231 cells [3] = assay: as above; type: cell-based, human
# Description: as §1
# MDA-MB-231 cells [4] = assay: Effect of labeled peptide on mitochondria and nuclei, confocal imaging; type: cell-based, human
# Method: (§2) To elucidate the site of action of the peptide having SEQ ID NO: 1, the peptide was labeled as described in Example 1 and incubated with normal and malignant cells (MCF-10A and MDA-MB-231 cells, respectively). […] Without being bound to any specific theory it was estimates that the peptide affects or disrupts the structure of the mitochondrial and nuclear membrane.
# MCF-10A cells [5] = assay: Penetration of fluorescein-labeled peptide into non-malignant cells; type: cell-based; details: FIG. 2
# Method: as §2
# (§3) In addition to D-PEP peptide (SEQ ID NO:3), in which all amino acids of SEQ ID NO: 1 were substituted to D-amino acids, a peptide comprising only 3 D-amino acids was produced and has the sequence FLGVLALLGyLAVRPfLPKkKQQK (SEQ ID NO: 2, referred as 3D-PEP). This peptide, as well as D-PEP, both marked with Fluorescein, were tested for their ability to penetrate into non-tumor MCF-10A and malignant MDA-MB-231 and for their toxicity, as described in Example 3. Briefly, cells were incubated with 10 μM of each sample of the peptides for 3 h and then intensively washed. Cell fluorescence was observed by semi-confocal microscope. For cell viability measurement, cells were incubated with 10 μM or 5 μM of each one of the peptides for 5 days and then cell viability was assayed using Alamar blue assay.
# MCF-10A cells [6] = assay: Effect of labeled peptide on nuclei, confocal imaging; type: cell-based; details: FIG. 6C
# Method: as §2
# MDA-MB-231 cells [7] = assay: Penetration of fluorescein-labeled peptide into malignant cells; type: cell-based, human; details: FIG. 2, FIG. 6A
# Method: as §2, §3
compound,measurement,setting,value
"CC(C)C[C@H](NC(=O)[C@H](C)NC(=O)[C@H](CC(C)C)NC(=O)[C@@H](NC(=O)CNC(=O)[C@H](CC(C)C)NC(=O)[C@@H](N)Cc1ccccc1)C(C)C)C(=O)N[C@@H](CC(C)C)C(=O)NCC(=O)N[C@H](Cc1ccc(O)cc1)C(=O)N[C@@H](CC(C)C)C(=O)N[C@@H](C)C(=O)N[C@H](C(=O)N[C@@H](CCCNC(=N)N)C(=O)N1CCC[C@H]1C(=O)N[C@H](Cc1ccccc1)C(=O)N[C@@H](CC(C)C)C(=O)N1CCC[C@H]1C(=O)N[C@@H](CCCCN)C(=O)N[C@H](CCCCN)C(=O)N[C@@H](CCCCN)C(=O)N[C@@H](CCC(N)=O)C(=O)N[C@@H](CCC(N)=O)C(=O)N[C@@H](CCCCN)C(=O)O)C(C)C [3D-PEP, FLGVLALLGyLAVRPfLPKkKQQK] (H-FLGVLALLG[dY]LAVRP[dF]LPK[dK]KQQK-OH; N-terminus and C-terminus assumed)",half life against chymotrypsin compared to native peptide,chymotrypsin,much longer half life
CC(C)C[C@H](NC(=O)[C@H](C)NC(=O)[C@H](CC(C)C)NC(=O)[C@@H](NC(=O)CNC(=O)[C@H](CC(C)C)NC(=O)[C@@H](N)Cc1ccccc1)C(C)C)C(=O)N[C@@H](CC(C)C)C(=O)NCC(=O)N[C@H](Cc1ccc(O)cc1)C(=O)N[C@@H](CC(C)C)C(=O)N[C@@H](C)C(=O)N[C@H](C(=O)N[C@@H](CCCNC(=N)N)C(=O)N1CCC[C@H]1C(=O)N[C@H](Cc1ccccc1)C(=O)N[C@@H](CC(C)C)C(=O)N1CCC[C@H]1C(=O)N[C@@H](CCCCN)C(=O)N[C@H](CCCCN)C(=O)N[C@@H](CCCCN)C(=O)N[C@@H](CCC(N)=O)C(=O)N[C@@H](CCC(N)=O)C(=O)N[C@@H](CCCCN)C(=O)NCCOCCOCCOCCOCCOCCOCCOCCOCCC(N)=O)C(C)C [PEG-C-3D-PEP] (H-FLGVLALLG[dY]LAVRP[dF]LPK[dK]KQQK[PEG8]-NH2; N-terminus assumed),effect on viability of normal cells,MCF-10A cells [1],much weaker effect
same,cytotoxicity,[2],~70%
CC(C)C[C@H](NC(=O)[C@H](C)NC(=O)[C@H](CC(C)C)NC(=O)[C@@H](NC(=O)CNC(=O)[C@H](CC(C)C)NC(=O)[C@H](Cc1ccccc1)NC(=O)CCOCCOCCOCCOCCOCCOCCOCCOCCN)C(C)C)C(=O)N[C@@H](CC(C)C)C(=O)NCC(=O)N[C@H](Cc1ccc(O)cc1)C(=O)N[C@@H](CC(C)C)C(=O)N[C@@H](C)C(=O)N[C@H](C(=O)N[C@@H](CCCNC(=N)N)C(=O)N1CCC[C@H]1C(=O)N[C@H](Cc1ccccc1)C(=O)N[C@@H](CC(C)C)C(=O)N1CCC[C@H]1C(=O)N[C@@H](CCCCN)C(=O)N[C@H](CCCCN)C(=O)N[C@@H](CCCCN)C(=O)N[C@@H](CCC(N)=O)C(=O)N[C@@H](CCC(N)=O)C(=O)N[C@@H](CCCCN)C(N)=O)C(C)C [PEG-N-3D-PEP] (H-[PEG8]FLGVLALLG[dY]LAVRP[dF]LPK[dK]KQQK-NH2; C-terminus assumed),effect on viability of normal cells,MCF-10A cells [1],much weaker effect
same,cytotoxicity,[2],~80%
CC(C)C[C@H](NC(=O)[C@H](C)NC(=O)[C@H](C)NC(=O)[C@@H](NC(=O)CNC(=O)[C@H](C)NC(=O)[C@H](C)N)C(C)C)C(=O)N[C@@H](CC(C)C)C(=O)NCC(=O)N[C@@H](Cc1ccc(O)cc1)C(=O)N[C@@H](CC(C)C)C(=O)N[C@@H](C)C(=O)N[C@H](C(=O)N[C@@H](CCCNC(=N)N)C(=O)N1CCC[C@H]1C(=O)N[C@@H](Cc1ccccc1)C(=O)N[C@@H](CC(C)C)C(=O)N1CCC[C@H]1C(=O)N[C@@H](CCCCN)C(=O)N[C@@H](CCCCN)C(=O)N[C@@H](CCCCN)C(=O)N[C@@H](CCC(N)=O)C(=O)N[C@@H](CCC(N)=O)C(=O)N[C@@H](CCCCN)C(=O)O)C(C)C [PEP-F44A-L45A-L48A] (H-AAGVAALLGYLAVRPFLPKKKQQK-OH; N-terminus and C-terminus assumed),cytotoxic activity of alanine analogs,MDA-MB-231 cells [3],completely lost their cytotoxic activity
CC(C)C[C@H](NC(=O)[C@H](C)NC(=O)[C@H](CC(C)C)NC(=O)[C@@H](NC(=O)CNC(=O)[C@H](C)NC(=O)[C@H](C)N)C(C)C)C(=O)N[C@@H](CC(C)C)C(=O)NCC(=O)N[C@@H](Cc1ccc(O)cc1)C(=O)N[C@@H](CC(C)C)C(=O)N[C@@H](C)C(=O)N[C@H](C(=O)N[C@@H](CCCNC(=N)N)C(=O)N1CCC[C@H]1C(=O)N[C@@H](Cc1ccccc1)C(=O)N[C@@H](CC(C)C)C(=O)N1CCC[C@H]1C(=O)N[C@@H](CCCCN)C(=O)N[C@@H](CCCCN)C(=O)N[C@@H](CCCCN)C(=O)N[C@@H](CCC(N)=O)C(=O)N[C@@H](CCC(N)=O)C(=O)N[C@@H](CCCCN)C(=O)O)C(C)C [PEP-F44A-L45A] (H-AAGVLALLGYLAVRPFLPKKKQQK-OH; N-terminus and C-terminus assumed),cytotoxic activity of alanine analogs,"MDA-MB-231 cells [3]; MDA-MB-231, FIG. 18",completely lost their cytotoxic activity
CC(C)C[C@H](NC(=O)[C@H](C)NC(=O)[C@H](C)NC(=O)[C@H](C)NC(=O)[C@@H](NC(=O)CNC(=O)[C@H](CC(C)C)NC(=O)[C@@H](N)Cc1ccccc1)C(C)C)C(=O)NCC(=O)N[C@@H](Cc1ccc(O)cc1)C(=O)N[C@@H](CC(C)C)C(=O)N[C@@H](C)C(=O)N[C@H](C(=O)N[C@@H](CCCNC(=N)N)C(=O)N1CCC[C@H]1C(=O)N[C@@H](Cc1ccccc1)C(=O)N[C@@H](CC(C)C)C(=O)N1CCC[C@H]1C(=O)N[C@@H](CCCCN)C(=O)N[C@@H](CCCCN)C(=O)N[C@@H](CCCCN)C(=O)N[C@@H](CCC(N)=O)C(=O)N[C@@H](CCC(N)=O)C(=O)N[C@@H](CCCCN)C(=O)O)C(C)C [PEP-L48A-L50A] (H-FLGVAAALGYLAVRPFLPKKKQQK-OH; N-terminus and C-terminus assumed),cytotoxic activity of alanine analogs,MDA-MB-231 cells [3],completely lost their cytotoxic activity
"PEP-FL: Green fluorescein was conjugated to the peptide having SEQ ID NO: 1 (FLGVLALLGYLAVRPFLPKKKQQK; also: green fluorescein conjugated, site not given here)",effect on nuclei of malignant cells,"MDA-MB-231 cells [4]; 12 hours of incubation, FIG. 6C",completely disappeared
same,effect on mitochondria of malignant cells,"MDA-MB-231 cells [4]; time after peptide addition, FIG. 6B",disappeared within three hours
same,uptake of fluorescent peptide by normal cells,MCF-10A cells [5],not by normal cells
same,effect on nuclei of normal cells,MCF-10A cells [6],no serious damage
same,uptake of fluorescent peptide by malignant cells,MDA-MB-231 cells [7],preferentially up-taken by the cancer MDA-MB-231 cells
